Calls of active or inactive are those of the source. No stated cut-off is given here; in the data, actives have a measured IC50 and inactives only a lower limit.
target: Envelope glycoprotein gp160 (Human immunodeficiency virus 1, UniProt Q6QLK5); assay: inhibitors of HIV fusion peptide binding, primary screen, biochemical, uHTS, fluorescence dequenching (AID 1986)
Sequence (Q6QLK5 whole entry, the tested form may be a part): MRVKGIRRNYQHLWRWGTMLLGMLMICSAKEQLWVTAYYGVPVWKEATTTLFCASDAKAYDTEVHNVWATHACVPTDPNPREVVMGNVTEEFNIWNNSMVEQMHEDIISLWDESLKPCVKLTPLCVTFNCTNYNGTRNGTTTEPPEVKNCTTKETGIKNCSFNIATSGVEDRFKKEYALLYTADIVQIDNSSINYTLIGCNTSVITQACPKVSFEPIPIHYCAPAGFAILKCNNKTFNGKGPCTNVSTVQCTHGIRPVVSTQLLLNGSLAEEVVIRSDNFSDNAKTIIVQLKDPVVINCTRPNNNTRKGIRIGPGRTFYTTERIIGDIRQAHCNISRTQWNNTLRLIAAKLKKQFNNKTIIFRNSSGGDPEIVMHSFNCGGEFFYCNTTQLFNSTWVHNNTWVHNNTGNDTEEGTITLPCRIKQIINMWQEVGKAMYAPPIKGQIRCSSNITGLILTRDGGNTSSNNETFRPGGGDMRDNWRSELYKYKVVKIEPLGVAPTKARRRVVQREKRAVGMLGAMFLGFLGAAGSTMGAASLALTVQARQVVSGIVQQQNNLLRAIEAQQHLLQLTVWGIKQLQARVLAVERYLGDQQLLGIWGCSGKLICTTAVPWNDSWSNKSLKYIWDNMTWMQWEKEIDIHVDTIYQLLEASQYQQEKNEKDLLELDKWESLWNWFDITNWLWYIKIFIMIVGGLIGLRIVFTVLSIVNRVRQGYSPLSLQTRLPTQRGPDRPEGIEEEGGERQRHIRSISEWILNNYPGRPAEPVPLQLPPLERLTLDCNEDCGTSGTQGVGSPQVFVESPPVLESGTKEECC

SMILES	IC50
O=S(=O)(Nc1nc2ccccc2nc1Nc1cccc(S(=O)(=O)N2CCCCC2)c1)c1ccccc1	13.3 µM (active)
COc1ccc(C(=O)/C=C/c2ccc(OCc3ccccc3)cc2)cc1CSCC(=O)O	25.7 µM (active)
Cc1cc(/C=C2/C(=N)N3C(=NC2=O)SN=C3S(C)(=O)=O)c(C)n1-c1ccccc1	19.1 µM (active)
